Paper PMC5444859 (PLoS Pathogens, 2017)

Target: CASV L-Cterm (CAS virus, UniProt J7HBG8)
Type: binding

With `C[n+]1cn([C@@H]2O[C@H](COP(=O)(O)OP(=O)(O)OP(=O)(O)O)[C@@H](O)[C@H]2O)c2nc(N)[nH]c(=O)c21` [m^7GTP] the “X-ray crystallography, crystal soaking” value was “the cap-analogue was bound to F1839 at the periphery of the β-sheet”.
